How the values were obtained:
hACE2 [1] = target: T1, hACE2 (Homo sapiens, UniProt Q9BYF1); experiment: Grating-coupled interferometry of synthetic MPs on immobilized hACE2; format: binding; conditions: synthetic MP, immobilized hACE2, 25 °C, pH 7.4, n = 1; read-out: KD (GCI)
Method: Measurements were performed using a Creoptix WAVEsystem and a 4PCH-STA WAVEchip (Creoptix, Malvern Panalytical, Malvern, UK). Prior to immobilization, all four flow channels were conditioned with 100 mM sodium borate, 1 M NaCl buffer pH 9.0, for 180 s at 10 μL/min, followed by three start-up cycles (3 cycles of 60 s at 10 μL/min) in running buffer (1X PBS pH 7.4 supplemented with 0.005% v/v Tween-20). Biotinylated hACE2 (10 μg/mL in running buffer) was captured on the chip surface with a 420 s injection cycle at 10 μL/min, achieving a target immobilization level of approximately 1000 pg/mm^2 surface mass per flow cell. Excess of unbound hACE2 was removed by washing with running buffer for 60 s at 10 μL/min. Binding experiments were conducted using regeneration-free kinetics (RFK). Seven serial 2-fold dilutions of each synthetic MP (2.5, 5, 10, 20, 40, 80, and 160 nM in running buffer) were injected at 25 °C with a continuous flow rate of 60 μL/min. Each MP concentration was allowed to associate for 60 s and dissociate for 45 s, with a final dissociation phase of 300 s monitored after the highest concentration. Response signals were double-referenced by subtracting the signal from an unmodified reference channel (untreated flow cell without hACE2 protein) and the signal from blank buffer injections to correct for bulk refractive index changes and systematic artifacts.

[2] = Plasma stability of synthetic peptides (LC-MS); conditions: 37 °C
Method: The mixtures were incubated at 37 °C in a water bath (VWR, Pennsylvania, PA, USA). At designated time points (0, 0.25, 0.5, 1, 2, 4, 8, 24, and 48 h), 100 μL aliquots were withdrawn and quenched with 100 μL of 100% v/v ACN. Following centrifugation (10 min at 15000 g, 4 °C), 100 μL of the supernatant was collected and diluted with 50 μL of solvent A (99.9% v/v H2O and 0.1% v/v FA). Samples were characterized by LC–MS using an Agilent 1260 Infinity II LC system coupled to an InfinityLab LC/MSD mass spectrometer (Agilent Technologies, Santa Clara, CA, USA). The system operated with a standard ESI source in negative ionization mode. Separation was performed on a reversed-phase Symmetry C18 column (5 μm, 150 mm × 4.6 mm, Waters, Milford, MA, USA) using a linear gradient of 10–100% solvent B over 22 min at a flow rate of 0.6 mL/min (Solvent A: 99.9% v/v H2O and 0.1% v/v FA; Solvent B: 99.9% v/v ACN and 0.1% v/v FA). Data acquisition, processing, and analysis were performed using MestReNova v.12.0.1 (Mestrelab Research, Santiago de Compostela, Spain). All samples were analyzed in duplicate (n = 2). The percentage of remaining peptide was calculated by integrating the peak areas, with the area at 0 h defined as 100%. Half-lives (t 1/2) were determined via nonlinear regression analysis using GraphPad Prism (GraphPad software Inc., San Diego, CA, USA). Data are presented as mean values ± s.d.

hACE2 [3] = target: T1, hACE2; experiment: Isothermal titration calorimetry of synthetic MPs with hACE2; format: binding; conditions: 25 °C
Method: Isothermal titration calorimetry (ITC) experiments were performed at 25 °C using a MicroCal iTC200 instrument ([…], Malvern Panalytical, Malvern, UK). The hACE2 protein (initial stock 11 mg/mL, 20 mM Tris pH 7.4, 200 mM NaCl) was diluted into the assay buffer (100 mM Tris pH 7.4, 200 mM NaCl) to a final concentration of 5 μM. […] Titrations consisted of an initial 0.4 μL injection (excluded from subsequent data analysis), followed by 18 injections of 2 μL each, with a stirring rate of 750 rpm to ensure rapid mixing. A 120 s interval was maintained between injections to ensure the baseline returned to equilibrium. Blank experiments involving the titration of the synthetic MPs into the assay buffer were performed to determine and subtract the heats of dilution. Data processing was conducted using the Origin software package version 7 (OriginLab Corporation, Northampton, MA, USA). The integrated heat signals were fitted to a single-site binding model to determine the association constant (K A), the dissociation constant ([…]), the enthalpy change (ΔH), and the binding stoichiometry (n). The Gibbs free energy (ΔG) and the entropy change (ΔS) were calculated using the standard thermodynamic relationship: ΔG=ΔH−TΔS=−RTln(KA)

hACE1 = target: T2, hACE1 (Homo sapiens, UniProt P12821); experiment: biochemical
T2 construct: purchased R&D Systems
Method: The activity assay was performed by incubating 0.25 nM of hACE2 with 50 μM fluorogenic substrate Mca-Ala-Pro-Lys­(Dnp)–OH (MedChemExpress, Monmouth Junction, NJ, USA) and 3-fold MP dilutions (ranging from 0.03 nM to 100 μM). […] All reagents were diluted in 10 mM Tris–HCl, pH 7.4, 300 mM NaCl, 100 μM ZnCl2, 0.1% w/v BSA, and 0.1% v/v DMSO assay buffer. The measurements were performed on a Berthold TriStar LB 941 microplate reader (Berthold Technologies, Bad Wildbad, Germany) using flat-bottom 96-well half area Corning Costar plates (Corning, New York, USA). The enzymatic reactions were performed at 25 °C for 90 min, under shaking with a maximum excitation wavelength (λex) of 320 nm and maximum emission wavelength (λem) of 405 nm. The initial velocities were monitored as changes in fluorescence intensity. Half-maximum inhibitory concentration (IC50) values were determined using GraphPad Prism v8.2.1 software (GraphPad software Inc., San Diego, CA, USA). […] Reactions were initiated by adding hACE2 (final concentration 0.25 nM) to the fluorogenic substrate in assay buffer at 25 °C. Fluorescence was recorded as described earlier (λex = 320 nm, λem = 405 nm) using a Berthold TriStar LB 941 microplate reader (Berthold Technologies, Bad Wildbad, Germany). Initial velocities (V 0) were plotted against substrate concentrations [S] and analyzed via nonlinear regression using a one-site specific binding model using GraphPad Prism v8.2.1 software (GraphPad software Inc., San Diego, CA, USA). […] All reagents were diluted in 10 mM Tris-HCl, pH 7.4, 300 mM NaCl, 100 μM ZnCl2, 0.1% w/v BSA, and 0.1% v/v DMSO buffer. Measurements and data analysis were performed as mentioned above.

hACE2 [4] = target: T1, hACE2; experiment: biochemical
Method: The activity assay was performed by incubating 0.25 nM of hACE2 with 50 μM fluorogenic substrate Mca-Ala-Pro-Lys­(Dnp)–OH (MedChemExpress, Monmouth Junction, NJ, USA) and 3-fold MP dilutions (ranging from 0.03 nM to 100 μM). […] All reagents were diluted in 10 mM Tris–HCl, pH 7.4, 300 mM NaCl, 100 μM ZnCl2, 0.1% w/v BSA, and 0.1% v/v DMSO assay buffer. The measurements were performed on a Berthold TriStar LB 941 microplate reader (Berthold Technologies, Bad Wildbad, Germany) using flat-bottom 96-well half area Corning Costar plates (Corning, New York, USA). The enzymatic reactions were performed at 25 °C for 90 min, under shaking with a maximum excitation wavelength (λex) of 320 nm and maximum emission wavelength (λem) of 405 nm. The initial velocities were monitored as changes in fluorescence intensity. Half-maximum inhibitory concentration (IC50) values were determined using GraphPad Prism v8.2.1 software (GraphPad software Inc., San Diego, CA, USA). […] Fluorescence was recorded as described earlier (λex = 320 nm, λem = 405 nm) using a Berthold TriStar LB 941 microplate reader (Berthold Technologies, Bad Wildbad, Germany). Initial velocities (V 0) were plotted against substrate concentrations [S] and analyzed via nonlinear regression using a one-site specific binding model using GraphPad Prism v8.2.1 software (GraphPad software Inc., San Diego, CA, USA). […]

[5] = tested on: mouse model of induced colitis; design: method as in ref 26 (Byrnes et al. 2009); conditions: 300 mg/kg twice daily, citation mark lost in text, ref 26 (Byrnes et al. 2009); cited from earlier work

T1 sequence (Q9BYF1 19-615): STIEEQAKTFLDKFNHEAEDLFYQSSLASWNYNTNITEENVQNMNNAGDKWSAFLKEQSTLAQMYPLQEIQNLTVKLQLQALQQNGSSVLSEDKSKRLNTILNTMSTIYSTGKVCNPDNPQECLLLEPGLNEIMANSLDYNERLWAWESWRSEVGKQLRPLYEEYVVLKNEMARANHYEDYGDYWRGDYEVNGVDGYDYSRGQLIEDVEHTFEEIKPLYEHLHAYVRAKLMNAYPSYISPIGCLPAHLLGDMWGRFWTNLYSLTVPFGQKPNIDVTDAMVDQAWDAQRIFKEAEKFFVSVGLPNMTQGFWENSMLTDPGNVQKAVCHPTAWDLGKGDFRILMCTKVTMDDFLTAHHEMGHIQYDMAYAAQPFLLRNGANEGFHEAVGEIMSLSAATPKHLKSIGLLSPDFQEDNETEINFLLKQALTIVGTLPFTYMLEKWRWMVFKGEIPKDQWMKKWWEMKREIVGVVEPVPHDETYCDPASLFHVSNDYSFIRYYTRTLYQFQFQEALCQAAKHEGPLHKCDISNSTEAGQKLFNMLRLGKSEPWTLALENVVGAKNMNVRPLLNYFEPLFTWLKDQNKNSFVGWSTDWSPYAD
T2 sequence (P12821 30-1306): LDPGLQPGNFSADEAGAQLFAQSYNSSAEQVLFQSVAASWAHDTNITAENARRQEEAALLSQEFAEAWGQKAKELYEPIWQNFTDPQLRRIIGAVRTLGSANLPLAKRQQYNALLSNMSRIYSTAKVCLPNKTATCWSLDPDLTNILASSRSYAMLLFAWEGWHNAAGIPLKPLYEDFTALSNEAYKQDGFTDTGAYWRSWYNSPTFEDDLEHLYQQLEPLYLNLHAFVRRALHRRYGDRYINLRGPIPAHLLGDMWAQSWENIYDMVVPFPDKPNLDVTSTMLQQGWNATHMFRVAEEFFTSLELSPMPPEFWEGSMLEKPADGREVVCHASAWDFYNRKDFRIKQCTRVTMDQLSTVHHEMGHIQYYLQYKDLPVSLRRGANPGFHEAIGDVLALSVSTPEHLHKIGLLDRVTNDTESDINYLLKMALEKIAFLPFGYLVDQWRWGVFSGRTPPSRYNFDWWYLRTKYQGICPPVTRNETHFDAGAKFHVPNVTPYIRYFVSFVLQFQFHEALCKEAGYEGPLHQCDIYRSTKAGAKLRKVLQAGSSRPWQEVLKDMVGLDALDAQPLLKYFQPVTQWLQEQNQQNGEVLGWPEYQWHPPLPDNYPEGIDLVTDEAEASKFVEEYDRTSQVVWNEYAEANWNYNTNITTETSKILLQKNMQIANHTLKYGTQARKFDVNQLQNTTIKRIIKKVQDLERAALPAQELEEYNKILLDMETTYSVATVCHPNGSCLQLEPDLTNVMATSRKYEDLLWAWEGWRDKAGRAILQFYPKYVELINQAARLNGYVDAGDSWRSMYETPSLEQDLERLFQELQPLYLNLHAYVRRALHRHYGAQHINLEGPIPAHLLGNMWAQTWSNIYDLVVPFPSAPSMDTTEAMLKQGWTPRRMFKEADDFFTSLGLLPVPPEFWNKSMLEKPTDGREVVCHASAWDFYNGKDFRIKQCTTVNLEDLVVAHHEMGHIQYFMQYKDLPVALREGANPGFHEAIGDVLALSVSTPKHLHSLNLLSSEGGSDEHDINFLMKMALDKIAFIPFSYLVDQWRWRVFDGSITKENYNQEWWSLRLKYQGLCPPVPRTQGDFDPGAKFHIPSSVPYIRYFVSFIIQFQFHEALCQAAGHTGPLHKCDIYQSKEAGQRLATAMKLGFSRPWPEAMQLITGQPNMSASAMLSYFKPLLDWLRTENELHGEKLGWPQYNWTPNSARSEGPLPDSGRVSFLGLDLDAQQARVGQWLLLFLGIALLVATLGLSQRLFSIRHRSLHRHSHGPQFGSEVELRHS

Structure (SMILES)	Kd (hACE2 [1])	t1/2 times longer than GR1.1 ([2]; human plasma)	t1/2 times longer than GR1.4 ([2]; human plasma)	half-life ([2]; human, plasma, plasma half-life t1/2, human plasma, 10 μM, LC-MS, n = 2)	ΔH (ITC) (hACE2 [3])	-TΔS (ITC) (hACE2 [3]; calculated)	IC50 (hACE1)	Ki (hACE1)	Ki (hACE2 [4])	effect on disease severity [5]
CC(C)C[C@@H]1NC(=O)[C@H](Cc2ccccc2)NC(=O)[C@@H](NC(=O)[C@H](C)N)CSSC[C@@H](C(=O)N[C@@H](CO)C(=O)NCC(N)=O)NC(=O)[C@H](Cc2c[nH]c3ccccc23)NC(=O)[C@H](CC(C)C)NC(=O)[C@H](Cc2c[nH]c3ccccc23)NC(=O)[C@@H]2CSSC[C@H](NC(=O)[C@H](CCCNC(=N)N)NC1=O)C(=O)N[C@@H](Cc1c[nH]cn1)C(=O)N[C@@H](CCCNC(=N)N)C(=O)N[C@@H](CC(=O)O)C(=O)N[C@@H](C(C)C)C(=O)N[C@@H](CCCCN)C(=O)N2 [GR3.1.2]	4.1 nM	1.5 times	1.3 times	516 min	-34.1 ± 0.6 kJ/mol	-8.2 kJ/mol	> 100 µM	> 100 µM	1.5 nM	–
CC(C)C[C@H](N[C@@H](Cc1cncn1Cc1cc(Cl)cc(Cl)c1)C(=O)O)C(=O)O [MLN-4760]	–	–	–	–	–	–	–	–	–	reduce disease severity
